# How the values were obtained:
# Format in all cases: in vivo
# [1] = tested on: rat closed femur fracture model; test: Rat closed femur fracture model, torsion test of femur strength; settings: 4 weeks after fracture
# Source text: A 10-week-old male Wistar rat (Charles River Laboratories Japan, Inc.) was anesthetized by isoflurane inhalation (inhalation of 5%, and retention of 2%), and retained in a supine position. The peripheral portion of the left knee was shaved with a clipper, and disinfected with Hibitane. About 2 cm of the skin of the left knee on the upside of the patella was incised. About 5 mm of the joint capsule was incised along with the outer edge of the patella, and then the patella was dislocated inward from the trochlear groove. A 22G injection needle was inserted into the medullary cavity in the center of the trochlear groove, and pulled out. Into the hole, a Kirschner wire (MIZUHO Corporation) having a diameter of 1 mm, which had been cut to 32 mm in advance was fully inserted in the medullary cavity of the femur. The joint capsule and the incised part of the skin were sutured with nylon suture (Alfresa Pharma Corporation). The left hind limb was fixed to an Einhorn type of bone fracture preparation device (special order item), and mechanical stress was added to the femur by dropping a weight from a predetermined position to prepare the bone fracture. Soft X-ray images of the hind limb were taken by using CT for animals (LCT-200, Hitachi Aloka Medical, Ltd.), and as a result it was confirmed that transverse fracture was prepared in the vicinity of the center of the femur. For the infection prevention, potassium penicillin G (Meiji Seika Pharma Co., Ltd.) was administered intramuscularly. CNP derivative A was administered subcutaneously once a day at a dose of 0.42 mg/kg/day for 7 days from one day after the surgery. Vehicle was administered to the control group. 4 weeks after the preparation of the bone fracture, the animal was anesthetized by isoflurane inhalation, retained in a supine position, and then bled for the euthanasia. The left and right femurs were resected, immersed in a physiological saline solution, and cryopreserved in a freezer. The femurs were thawed at a later date, subjected to torsion test using a bone strength meter (MZ-500S, MARUTO INSTRUMENT CO., LTD.), and the strength of the femur was measured. The test was performed in 12 cases in each group.
# [2] = tested on: type X collagen gene; test: Rat closed femur fracture model, cartilage-related marker gene expression (real-time PCR); settings: 7 days after fracture
# Protocol: In accordance with the method of Example 2, a rat closed fracture model was prepared. For an animal in a Sham group, a pin only was inserted into the femur, and a bone fracture was not prepared. An administration solution of CNP derivative A was prepared so as to be a dosage corresponding to 0.5 mg/kg/day, and then loaded into an osmotic pump (model 2001, Alzet). The osmotic pump was buried under the skin of the neck back of the animal, and continuous subcutaneous administration was performed for one week. Vehicle was continuously subcutaneously administered to the control group. 7 days after the preparation of the bone fracture, the animal was subjected to isoflurane inhalation anesthesia, retained in a supine position to open the abdomen, and then bled for the euthanasia. The left femur was resected, and immersed into RNAlater (Life Technologies Corporation). The diaphysis or part of the callus was cut out from the femur that had been refrigerated in RNAlater for one day or more. To the cut-out diaphysis or part of the callus, QIAzol (QIAGEN) was added, and the resultant was crushed with tungsten beads. The total RNA was extracted by an RNeasy Mini Kit (QIAGEN), and 1st strand cDNA was synthesized by a SuperScript VILO cDNA Synthesis Kit (Life Technologies Corporation). The gene expression level was measured by a real-time PCR method using TaqMan Gene Expression Master Mix (Life Technologies Corporation). The measured value was standardized by the gene expression level of ubiquitin-C. The standardization was performed for 12 cases in each group.
# (§1) In accordance with the method of Example 2, a rat closed fracture model was prepared. An administration solution was prepared so as to be a dosage corresponding to 0.5 mg/kg/day by using various NPR-B agonists (CNP derivative A, hCNP-53 (SEQ ID NO: 2), CNP derivative C (CNP-36, amino acid Nos. 18 to 53 of SEQ ID NO: 2), and CNP derivative D (Pro-Gly-CNP37, SEQ ID NO: 15)), and then loaded into an osmotic pump (Model 2001, Alzet). The osmotic pump was buried under the skin of the neck back of the animal retained in a supine position, and continuous subcutaneous administration was performed for one week. Vehicle was administered to the control group. 7 days after the preparation of the bone fracture, the animal was subjected to isoflurane inhalation anesthesia, retained in a supine position to open the abdomen, and then subjected to blood collection from the abdominal aorta. EDTA Na was added to the blood, then the EDTA Na-added blood was centrifuged and the plasma separated, and the resultant was cryopreserved. At a later date, the cGMP level in the plasma was measured by a RIA method using a kit (YSI-7702, YAMASA CORPORATION). After blood collection, the animal was bled for the euthanasia, and then the left femur was resected. Each maximum diameter of the sagittal plane and the coronal plane in the callus was measured, and the average value was used as a callus diameter. In accordance with the method of Example 3, the type X collagen gene expression level in the callus was measured. The measurement was performed for 12 cases in each group.
# [3] = tested on: rat closed femur fracture model; test: Rat closed femur fracture model, callus diameter; settings: 0.5 mg/kg/day continuous s.c. for one week; 7 days after fracture; versus vehicle group; FIG. 5B
# Protocol: as §1
substance,measurement,setting,value
"CNP derivative A: CNP (1-22) Ghrelin (12-28, E17D): SEQ ID NO: 13; SEQ ID NO: 157 of US 2010-305031 (GLSKGCFGLKLDRIGSMSGLGCVQQRKDSKKPPAKLQPR; Chimeric CNP J (SEQ ID NO157) of US2010-305031 and WO2009/142307, and CNP derivative A of current invention.)",Share of individuals whose fractured left femur showed the reference value (3 N×mm/deg) or more,"[1]; 0.42 mg/kg/day s.c. for 7 days, 12 individuals, vehicle 33%",83%
same,Number of individuals whose fractured left femur showed the reference value (3 N×mm/deg) or more,"[1]; 0.42 mg/kg/day s.c. for 7 days, out of 12 individuals",10 individuals
same,Healing rate of the fracture,"[1]; 0.42 mg/kg/day s.c. for 7 days, versus vehicle",significantly improved
same,Strength of the left femur to which bone fracture had been prepared (torsion test stiffness),"[1]; 0.42 mg/kg/day s.c. once a day for 7 days from one day after surgery, 12 cases",almost the same as that of the untreated right femur
same,Gene expression of type X collagen in fractured left femur,"[2]; Example 3: 0.5 mg/kg/day continuous s.c. (osmotic pump) for one week, normalized to ubiquitin C",significantly suppressed
same,Gene expression level of type X collagen in the callus,"[2]; Example 4: 0.5 mg/kg/day continuous s.c. for one week, versus vehicle group, FIG. 5C",suppressed
same,Maximum diameter of the callus generated in the left femur,[3],significantly larger
